Assay results from ChEMBL document CHEMBL1149563 (Bioorg Med Chem Lett, 2007).

Experiments:
[1] = biological target: T1, Androgen receptor (Homo sapiens, UniProt P10275); experiment: Displacement of [3H]DHT from human androgen receptor in MDA453 cells; format: cell-based
T1 sequence (P10275 whole entry): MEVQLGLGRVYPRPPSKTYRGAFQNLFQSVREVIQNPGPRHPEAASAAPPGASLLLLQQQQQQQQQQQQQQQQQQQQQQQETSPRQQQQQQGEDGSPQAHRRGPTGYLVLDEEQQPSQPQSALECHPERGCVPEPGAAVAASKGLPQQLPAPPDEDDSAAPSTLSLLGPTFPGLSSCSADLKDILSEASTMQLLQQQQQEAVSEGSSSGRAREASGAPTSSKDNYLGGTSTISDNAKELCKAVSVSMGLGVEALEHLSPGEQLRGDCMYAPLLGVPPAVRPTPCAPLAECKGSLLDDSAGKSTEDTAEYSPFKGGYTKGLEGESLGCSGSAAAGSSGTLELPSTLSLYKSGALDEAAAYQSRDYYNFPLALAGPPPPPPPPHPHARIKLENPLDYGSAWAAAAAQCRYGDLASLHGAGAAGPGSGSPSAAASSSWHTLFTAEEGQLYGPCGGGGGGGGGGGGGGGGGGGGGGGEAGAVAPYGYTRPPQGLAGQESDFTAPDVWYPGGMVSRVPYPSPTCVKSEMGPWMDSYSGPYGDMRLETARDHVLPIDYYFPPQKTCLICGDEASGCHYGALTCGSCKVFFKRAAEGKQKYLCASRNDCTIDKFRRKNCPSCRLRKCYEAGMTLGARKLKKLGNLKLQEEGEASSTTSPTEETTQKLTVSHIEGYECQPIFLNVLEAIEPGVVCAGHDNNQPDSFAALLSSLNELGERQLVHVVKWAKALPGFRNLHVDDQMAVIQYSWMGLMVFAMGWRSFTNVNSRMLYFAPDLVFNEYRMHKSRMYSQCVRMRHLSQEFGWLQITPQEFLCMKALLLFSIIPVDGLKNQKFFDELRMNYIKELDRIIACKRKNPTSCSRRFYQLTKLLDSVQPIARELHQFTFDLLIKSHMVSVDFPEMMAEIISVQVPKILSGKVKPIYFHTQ

[2] = biological target: T2, Androgen receptor (Mus musculus, UniProt P19091); experiment: Agonist activity at androgen receptor in mouse C2C12 cells by receptor transactivation assay; format: functional, cell-based
T2 sequence (P19091 whole entry): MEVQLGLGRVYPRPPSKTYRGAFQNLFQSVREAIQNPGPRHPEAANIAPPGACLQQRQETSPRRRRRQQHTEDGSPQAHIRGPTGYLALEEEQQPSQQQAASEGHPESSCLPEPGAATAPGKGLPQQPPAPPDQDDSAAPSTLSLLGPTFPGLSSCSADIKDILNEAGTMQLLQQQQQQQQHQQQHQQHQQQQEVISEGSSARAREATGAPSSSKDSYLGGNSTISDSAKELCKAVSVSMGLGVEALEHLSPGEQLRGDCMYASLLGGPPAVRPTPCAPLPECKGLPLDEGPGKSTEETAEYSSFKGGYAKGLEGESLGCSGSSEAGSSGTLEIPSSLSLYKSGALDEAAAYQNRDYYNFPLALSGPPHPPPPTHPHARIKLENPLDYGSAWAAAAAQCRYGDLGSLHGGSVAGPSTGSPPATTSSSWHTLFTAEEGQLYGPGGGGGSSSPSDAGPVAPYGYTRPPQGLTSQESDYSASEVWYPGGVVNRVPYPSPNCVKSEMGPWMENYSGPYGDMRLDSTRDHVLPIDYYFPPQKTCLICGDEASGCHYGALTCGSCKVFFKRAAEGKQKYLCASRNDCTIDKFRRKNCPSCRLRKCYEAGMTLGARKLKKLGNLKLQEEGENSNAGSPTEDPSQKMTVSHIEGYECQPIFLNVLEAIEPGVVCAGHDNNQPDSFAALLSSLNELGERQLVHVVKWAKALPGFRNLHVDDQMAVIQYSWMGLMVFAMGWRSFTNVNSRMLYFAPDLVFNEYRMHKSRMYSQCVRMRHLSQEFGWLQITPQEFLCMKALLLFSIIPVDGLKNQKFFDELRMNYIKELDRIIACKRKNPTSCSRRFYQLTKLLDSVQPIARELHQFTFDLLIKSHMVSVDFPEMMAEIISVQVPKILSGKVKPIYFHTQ

[3] = biological target: T2, Androgen receptor
Description: Antagonist activity at androgen receptor in mouse C2C12 cells by receptor transactivation assay

[4] = tested on: Rattus norvegicus; experiment: Effect on […] in castrated rat at 0.3 mg/kg, sc after 14 days relative to intact rat; format: functional; conditions: route subcutaneous
[5] = tested on: Rattus norvegicus; experiment: Effect on levator ani muscle weight in castrated rat at 0.3 mg/kg, sc after 14 days relative to intact rat; format: functional; conditions: route subcutaneous
[6] = tested on: Rattus norvegicus; experiment: Effect on levator ani muscle weight in castrated rat at 10 mg/kg, po after 14 days relative to intact rat; format: functional
[7] = Clearance in rat at 5 mg/kg, iv or 10 mg/kg, po; format: ADME, organism-based; conditions: in vivo
[8] = tested on: Rattus norvegicus; experiment: Effect on […] in castrated rat at 10 mg/kg, po after 14 days relative to intact rat; format: functional
[9] = Cmax in rat at 5 mg/kg, iv or 10 mg/kg, po; format: ADME, organism-based; conditions: in vivo
[10] = Oral bioavailability in rat at 10 mg/kg; format: ADME, organism-based; conditions: in vivo
[11] = Half life in rat at 5 mg/kg, iv or 10 mg/kg, po; format: ADME, organism-based; conditions: in vivo

Row | Structure (SMILES) | Ki [1] [µM] | EC50 [2] [µM] | other results
1 | Cc1c(N2C(=O)[C@@H]3C[C@H](O)CN3S2(=O)=O)ccc(C#N)c1Cl | 0.044 | 3.52 | –
2 | Cc1c(N2C[C@@H]3[C@@H](O)CCN3S2(=O)=O)ccc(C#N)c1Cl | 0.189 | – | –
3 | COC(=O)[C@@H]1[C@H](O)CCN1S(=O)(=O)c1ccc(C#N)c(Cl)c1C | 0.036 | > 3 | IC50 [3]: 0.278 µM
4 | Cc1c(N2C(=O)[C@@H]3[C@H](O)CCN3C2=O)ccc(C#N)c1Cl | – | 0.00044 | –
5 | N#Cc1ccc(N2C(=O)[C@@H]3[C@H](O)CCN3C2=O)c2ccccc12 | – | 0.0023 | –
6 | Cc1c(N2C(=O)[C@]3(C)[C@H](O)CCN3S2(=O)=O)ccc(C#N)c1Cl | 0.0082 | 1.25 | –
7 | COC(=O)[C@@H]1[C@H](O)CCN1S(=O)(=O)Nc1ccc(C#N)c(Cl)c1C | – | 7.46 | –
8 | Cc1c(N2C(=O)[C@@H]3[C@@H](O)CCN3S2(=O)=O)ccc(C#N)c1Cl | 0.029 | 2.96 | –
9 | Cc1c(NS(=O)(=O)N2CC[C@@H](O)[C@H]2C(=O)O)ccc(C#N)c1Cl | – | 0.0028 | –
10 | CCC(=O)O[C@H]1CC[C@H]2[C@@H]3CCC4=CC(=O)CC[C@]4(C)[C@H]3CC[C@]12C [TESTOSTERONE PROPIONATE] | 0.00025 | 0.0028 | Activity [4]: 70%; Activity [5]: 70%
11 | Cc1c(N2C(=O)[C@@H]3[C@H](O)CCN3S2(=O)=O)ccc(C#N)c1Cl | 0.00045 | 0.0119 | Activity [6]: 70%; clearance [7]: 12.8 mL/min/kg; Activity [8]: 10%; Cmax [9]: 8.4 µM; bioavailability [10]: 53%; half-life [11]: 54 min
12 | Cc1c(N2C[C@@H]3[C@H](O)CCN3S2(=O)=O)ccc(C#N)c1Cl | 0.014 | 7.73 | –
13 | Cc1c(N2C(C)[C@@H]3[C@@H](O)CCN3S2(=O)=O)ccc(C#N)c1Cl (stereo not given in full) | 0.02 | 8.96 | –
